One may read the IC50 as the concentration that inhibits the measured activity by half.

In the test the target is T1, hALDH2 (Homo sapiens, UniProt P05091).
T1 sequence (P05091 18-517): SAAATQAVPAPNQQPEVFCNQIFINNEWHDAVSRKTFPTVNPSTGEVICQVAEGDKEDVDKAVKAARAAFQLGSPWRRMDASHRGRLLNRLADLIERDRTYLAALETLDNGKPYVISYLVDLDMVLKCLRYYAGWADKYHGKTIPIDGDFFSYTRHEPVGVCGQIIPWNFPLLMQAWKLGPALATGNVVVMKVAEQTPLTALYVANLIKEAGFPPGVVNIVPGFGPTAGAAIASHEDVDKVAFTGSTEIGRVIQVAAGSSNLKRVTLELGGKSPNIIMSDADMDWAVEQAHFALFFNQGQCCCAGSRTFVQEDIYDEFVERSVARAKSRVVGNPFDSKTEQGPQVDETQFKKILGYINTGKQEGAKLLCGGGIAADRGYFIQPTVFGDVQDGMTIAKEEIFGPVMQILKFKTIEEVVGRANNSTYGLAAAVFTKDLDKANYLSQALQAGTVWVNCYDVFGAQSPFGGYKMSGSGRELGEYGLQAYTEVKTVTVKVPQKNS
In kind it is biochemical.

In turn, `CN(C)C(=S)SSC(=S)N(C)C` [thiram] returned an IC50 of 1600 nM.

The record behind these values is paper PMC11682119 (Scientific Reports, 2024).
